Here are results for one compound from ChEMBL document CHEMBL1212923, “Synthesis and in vivo evaluation of phenethylpiperazine amides: selective 5-hydroxytryptamine(2A) receptor antagonists for the treatment of insomnia” (J Med Chem, 2010).

pKi: −log10 of the molar value.

For series [1], the target named is 5-hydroxytryptamine receptor 2A (Homo sapiens, UniProt P28223). The series is described as follows: biochemical.
Description: Displacement of [125I]DOI from human recombinant 5HT2A receptor expressed in HEK293 cells after 1 hr by scintillation counting
Series [2] can be described thus: Half life in rat liver microsomes. The class given is ADME, Microsome.
Series [3] addresses hERG (KCNH2) (Homo sapiens, UniProt Q12809). The series is described as follows: Inhibition of human ERG at 3 uM by patch clamp electrophysiology assay. (In patch-clamp work, channel activity is measured electrically.)
Series [4] deals with Rattus norvegicus. Kind of series: Inhibition of DOI-induced hypolocomotion in Sprague-Dawley rat at 1 mg/kg, po administered 25 mins before DOI challenge measured after 10 mins. It counts as functional.
Series [5] deals with Rattus norvegicus. Kind of series: Inhibition of DOI-induced hypolocomotion in Sprague-Dawley rat at 3 mg/kg, po administered 25 mins before DOI challenge measured after 10 mins. It counts as functional.
Series [6] deals with T1, 5-hydroxytryptamine receptor 2C (Homo sapiens, UniProt P28335).
T1 sequence (P28335 whole entry): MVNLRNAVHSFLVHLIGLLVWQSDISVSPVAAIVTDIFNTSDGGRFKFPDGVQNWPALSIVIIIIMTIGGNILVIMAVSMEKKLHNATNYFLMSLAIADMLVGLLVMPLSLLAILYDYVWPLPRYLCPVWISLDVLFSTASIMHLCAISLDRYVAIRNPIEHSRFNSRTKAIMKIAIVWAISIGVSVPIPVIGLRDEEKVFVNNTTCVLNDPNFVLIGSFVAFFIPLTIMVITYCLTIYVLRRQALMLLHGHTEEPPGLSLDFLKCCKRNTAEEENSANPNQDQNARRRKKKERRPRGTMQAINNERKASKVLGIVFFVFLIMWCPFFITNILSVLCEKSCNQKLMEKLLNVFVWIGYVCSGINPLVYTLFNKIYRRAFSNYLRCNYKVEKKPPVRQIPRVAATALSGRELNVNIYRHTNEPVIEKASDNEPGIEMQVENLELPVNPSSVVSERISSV
The class given is cell-based, HEK293.

Sequence of 5-hydroxytryptamine receptor 2A (P28223 whole entry): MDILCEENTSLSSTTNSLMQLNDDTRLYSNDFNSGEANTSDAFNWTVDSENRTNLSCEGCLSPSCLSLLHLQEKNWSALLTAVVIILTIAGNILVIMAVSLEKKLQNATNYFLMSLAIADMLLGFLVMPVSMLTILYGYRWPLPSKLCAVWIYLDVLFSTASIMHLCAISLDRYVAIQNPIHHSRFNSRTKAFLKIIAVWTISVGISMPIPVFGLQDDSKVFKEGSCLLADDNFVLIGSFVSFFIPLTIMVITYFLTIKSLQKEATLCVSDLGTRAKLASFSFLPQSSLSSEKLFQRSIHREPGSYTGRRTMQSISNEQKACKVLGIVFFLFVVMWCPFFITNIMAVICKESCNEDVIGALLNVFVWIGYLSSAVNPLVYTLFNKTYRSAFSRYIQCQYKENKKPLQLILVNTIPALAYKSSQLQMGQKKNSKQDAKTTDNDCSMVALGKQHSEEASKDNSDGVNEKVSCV
Sequence of hERG (KCNH2) (Q12809 whole entry): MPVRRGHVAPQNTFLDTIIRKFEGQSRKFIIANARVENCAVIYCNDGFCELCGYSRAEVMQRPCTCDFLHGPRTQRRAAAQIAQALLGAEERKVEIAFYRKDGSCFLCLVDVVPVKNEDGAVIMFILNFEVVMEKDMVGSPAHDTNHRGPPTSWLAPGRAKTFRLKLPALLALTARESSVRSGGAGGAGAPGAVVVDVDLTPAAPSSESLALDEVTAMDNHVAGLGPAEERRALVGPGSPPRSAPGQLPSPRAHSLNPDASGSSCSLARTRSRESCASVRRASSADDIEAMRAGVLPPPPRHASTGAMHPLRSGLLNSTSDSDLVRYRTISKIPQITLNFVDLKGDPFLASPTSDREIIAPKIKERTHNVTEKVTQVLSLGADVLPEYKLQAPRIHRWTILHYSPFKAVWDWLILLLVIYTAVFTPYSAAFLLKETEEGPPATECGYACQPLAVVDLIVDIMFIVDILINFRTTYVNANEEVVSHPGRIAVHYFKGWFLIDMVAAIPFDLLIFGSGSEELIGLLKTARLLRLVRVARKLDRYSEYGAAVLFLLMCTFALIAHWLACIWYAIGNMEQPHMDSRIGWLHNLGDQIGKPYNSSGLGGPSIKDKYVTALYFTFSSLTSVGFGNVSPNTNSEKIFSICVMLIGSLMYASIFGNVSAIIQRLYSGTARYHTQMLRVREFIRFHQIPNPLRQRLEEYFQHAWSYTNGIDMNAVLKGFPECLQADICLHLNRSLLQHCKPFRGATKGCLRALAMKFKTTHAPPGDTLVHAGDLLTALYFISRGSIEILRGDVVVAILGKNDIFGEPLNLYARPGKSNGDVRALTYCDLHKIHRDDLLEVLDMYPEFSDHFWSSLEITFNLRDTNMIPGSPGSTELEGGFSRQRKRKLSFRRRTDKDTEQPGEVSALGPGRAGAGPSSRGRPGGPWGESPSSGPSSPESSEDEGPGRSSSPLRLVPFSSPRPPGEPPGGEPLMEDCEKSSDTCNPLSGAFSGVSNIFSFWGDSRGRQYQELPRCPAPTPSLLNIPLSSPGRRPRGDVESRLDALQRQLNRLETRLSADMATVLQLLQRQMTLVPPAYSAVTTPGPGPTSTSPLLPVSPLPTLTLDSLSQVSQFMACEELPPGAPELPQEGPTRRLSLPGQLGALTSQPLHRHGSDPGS

Broadly, the pKi is −log10 of the Ki, conventionally taken in molar units. The low end stands for a high Ki, the high end for a low Ki. As a reminder, the half-life is the time needed for the level to fall by half in the phase considered. For orientation: inhibition means the share of the control response that was lost under treatment. A low value points to a weak effect. For orientation: inhibition in vivo means the change of the read-out against control, counted positive when it falls. Low values mean little suppression, high ones strong suppression. For the compound `Cc1c(Br)c(C(=O)N2CCN(CC(=O)c3ccc(F)cc3)CC2)nn1C`, the pKi was 8.34 in series [1] and 5.53 in series [6]. Besides, the half-life in series [2] was 29 min. In series [3], this compound displayed an inhibition at 3 µM of 15%. This compound gave an inhibition in vivo at 1 mg/kg in series [4] of 22%. In series [5], 3 mg/kg produced 65% inhibition in vivo.
